Measured values reported in PMC11678221, “Design, Synthesis and Molecular Modeling of Pyrazolo[1,5-a]pyrimidine Derivatives as Dual Inhibitors of CDK2 and TRKA Kinases with Antiproliferative Activity” (Pharmaceuticals, 2024).

What was measured:
[1] = biological target: T1, CDK2/CyclinA2 (Homo sapiens, UniProt P24941); assay: CDK2 inhibition assay (BPS Bioscience kit, Kinase-Glo Max luminescence); type: biochemical; conditions: four concentrations 0.01, 0.1, 1, 10 µM, triplicate, mean ± SD, read-out: Enzyme Inhibition IC50 CDK-2
T1 construct: purchased BPS Bioscience, San Diego, CA, USA 79599

[2] = biological target: T2, TrkA (Homo sapiens, UniProt P04629); assay: TRKA inhibition assay (BPS Bioscience kit, Kinase-Glo Max luminescence); type: biochemical; conditions: four concentrations 0.01, 0.1, 1, 10 µM, triplicate, mean ± SD, read-out: Enzyme Inhibition IC50 TRK-A
T2 construct: purchased BPS Bioscience, San Diego, CA, USA 79548
T2 sequence (P04629 33-796): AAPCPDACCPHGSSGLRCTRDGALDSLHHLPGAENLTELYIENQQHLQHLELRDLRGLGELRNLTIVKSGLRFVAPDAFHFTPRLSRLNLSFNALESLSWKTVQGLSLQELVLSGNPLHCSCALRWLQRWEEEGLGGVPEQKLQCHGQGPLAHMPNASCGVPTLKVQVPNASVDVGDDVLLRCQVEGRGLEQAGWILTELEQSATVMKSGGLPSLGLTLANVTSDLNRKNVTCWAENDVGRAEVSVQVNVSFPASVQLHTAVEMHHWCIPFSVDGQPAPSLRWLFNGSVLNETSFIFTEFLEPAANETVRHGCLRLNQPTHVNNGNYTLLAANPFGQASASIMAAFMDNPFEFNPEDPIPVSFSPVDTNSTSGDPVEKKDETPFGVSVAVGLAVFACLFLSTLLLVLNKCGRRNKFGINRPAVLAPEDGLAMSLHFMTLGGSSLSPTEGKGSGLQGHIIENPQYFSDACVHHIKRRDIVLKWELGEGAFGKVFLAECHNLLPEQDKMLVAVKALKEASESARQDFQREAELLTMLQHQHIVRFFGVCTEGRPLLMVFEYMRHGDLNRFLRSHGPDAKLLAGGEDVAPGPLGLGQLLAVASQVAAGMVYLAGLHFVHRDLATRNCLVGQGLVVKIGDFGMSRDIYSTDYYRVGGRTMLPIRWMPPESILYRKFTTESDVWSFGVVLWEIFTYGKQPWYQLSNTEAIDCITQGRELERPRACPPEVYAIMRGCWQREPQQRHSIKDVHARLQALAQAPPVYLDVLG

[3] = system: HOP-62; assay: NCI 60 cell line single-dose growth inhibition (SRB); type: cell-based, human; conditions: 10 µM; lung carcinoma HOP-62
Method: (§1) The developed pyrazolopyrimidines 6a–t, 11a–g, and 12 were evaluated by the National Cancer Institute (NCI) Developmental Therapeutic Program https://dtp.cancer.gov/ (accessed on 17 July 2022) for their prospective efficacy of growth-inhibitory activity verses 60 different carcinoma cell lines of NCI. Human carcinoma cell lines originated across nine distinct cancer types: central nervous system, cancer of the blood, colorectal, breast, ovary, kidney, melanoma, prostatic, and lung carcinomas. All compounds have been assessed with a concentration of 10 µM versus the collection of 60 diverse cancer cell lines. Outcomes are expressed as percentages of growth inhibition (GI %) for the evaluated compounds versus the complete set of cell lines (Supplementary Materials).
(§2) Performed by US National Cancer Institute according to previously reported standard procedure as follows: Cells were plated into 96-well microtiter plates with each well equipped with 100 µL of culture medium at densities between 5000 and 40,000 cells per well, based on the specific cell line’s doubling time. After seeding, incubation was carried out at 37 °C in 5% carbon dioxide, 95% […] environment with 100% relative humidity for one day to permit the cells to attach before proceeding to treatment with the tested compounds. To determine the cell count at drug exposure time of (Tz), two plates were per fixed cell line using trichloroacetic acid after the 24 h incubation period.
(§3) The studied compounds were initially dispersed in dimethyl sulfoxide at a concentration 400 times exceeding the intended final concentration and subsequently frozen until required. Before the application, an aliquot of the stock solution was warmed to room temperature and diluted in a complete medium containing 50 µg per mL of gentamicin to attain twice the intended concentration. Subsequently, 100 µL of the diluted compound was introduced to every well holding 100 µL of the medium to achieve the intended concentration. After the compound was added, the plates were incubated under the same conditions for a further 48 h at 37 °C.
(§4) For the adherent cells, the experiment was concluded via the introduction of 50 µL of cold 50% (w/v) trichloroacetic acid into each well, resulting in a last TCA concentration for 10%. Then, the cell plates were incubated at 4 °C for about one hour to fix the cells.
(§5) After the removal of the supernatant, the plates were washed with tap water five times before being dried using air. For the suspension cells, a similar process was followed, but 50 µL of 80% TCA was used, yielding a final TCA concentration of 16% for the cells fixed in the well’s bottom.
(§6) Following cell fixation, 100 µL of the 0.4% (wight/volume) solution of sulforhodamine B with acetic acid at a concentration of 1% was introduced to all individual wells, and then incubated at ambient temperature for 10 min. The plates were washed five times with 1% acetic acid to eliminate any residual dye, followed by air-drying. Next, […] Tris base was added to disperse the bonded dye, and, using an automatic microplate reader, the absorbance was determined at 515 nm.
(§7) The percentage of growth inhibition measurement depended on the absorbance values at the baseline time point […], as well as during the control growth phase (C) and the test growth phase (Ti). When Ti was greater than or equal to Tz, the calculation formula used [(Ti − Tz)/(C − Tz)] × 100. If Ti was less than Tz, the formula used was (Ti − Tz)/Tz × 100.

[4] = system: RFX 393; assay: as above; type: cell-based, human; conditions: 10 µM; kidney carcinoma cell line RFX 393
Method: as §1, §2, §3, §4, §5, §6, §7

[5] = system: HOP-92; assay: as above; type: cell-based, human; conditions: 10 µM; lung carcinoma HOP-92
Method: as §1, §2, §3, §4, §5, §6, §7

[6] = system: CCRF-CEM; assay: as above; type: cell-based, human; conditions: 10 µM; leukemia CCRF-CEM
Method: as §1, §2, §3, §4, §5, §6, §7

[7] = system: RPMI-8226; assay: as above; type: cell-based, human; conditions: 10 µM; leukemia RPMI-8226
Method: as §1, §2, §3, §4, §5, §6, §7

[8] = system: NCI-H460; assay: as above; type: cell-based, human; conditions: 10 µM; lung carcinoma NCI-H460
Method: as §1, §2, §3, §4, §5, §6, §7

[9] = system: 56 cell lines; assay: NCI 60 cell line single-dose growth inhibition, mean over the panel; type: cell-based; conditions: Homo sapiens, mean across 56 cell lines, read-out: mean growth inhibition (GI%)
Method: as §1, with “Materials). […]” for “Materials).”
as §6, with “The plates were washed five times with 1% acetic acid to eliminate any residual dye, followed by air-drying.” left out
The percentage of growth inhibition measurement depended on the absorbance values at the baseline time point (T0), as well as during the control growth phase (C) and the test growth phase (Ti). […]

[10] = system: ACHN; assay: NCI 60 cell line single-dose growth inhibition (SRB); type: cell-based, human; conditions: 10 µM; renal cancer cell line ACHN
Method: as §1, §2, §3, §4, §5, §6, §7

[11] = system: RFX 393; assay: In vitro cytotoxicity on renal carcinoma cell line (MTT assay); type: cell-based; conditions: renal carcinoma cell line RFX 393, read-out: RFX393 (IC50)
[12] = system: RFX 393 cells; assay: Cell cycle investigation (PI flow cytometry); type: cell-based; conditions: GI50 concentration, 48 h; for %S: control 29.33; for %G0–G1: control 57.08
Method: RFX 393 cells underwent treatment with pyrazolopyrimidine derivatives 6s and 6t at their GI50 concentrations for 48 h.
RFX 393 cells underwent treatment with compounds 6s and 6t at their respective GI50 concentrations for 48 h. Following treatment, the cells were collected, dispersed in 0.5 mL of PBS, and subjected to centrifugation. They were then preserved in 70% (v/v) ethanol at 4 °C and subsequently rinsed with PBS, treated with RNase, and propidium iodide (PI) was used to stain the cells. Flow cytometric measurements were carried out employing a FACScalibur system (Becton Dickinson, Franklin Lakes, NJ, USA). The distributions of the cell cycle were subsequently calculated with the aid of software from Phoenix Flow Systems and Verity Software House (ModFit LT V6.0).

[13] = system: RFX 393 cells; assay: Apoptosis and necrosis investigation (Annexin V/PI flow cytometry); type: cell-based; conditions: GI50 concentration, 48 h; for Apoptosis Late: control 0.15, % given in Figure 10 only; for Apoptosis Early: control 0.64, % given in Figure 10 only; for Necrosis: control 1.92, % given in Figure 10 only; for Apoptosis Total: control 2.71, % given in Figure 10 only
Method: To assess the influence of compounds 6s and 6t on cell death pathways, RFX 393 cells were subjected to the compounds for 48 h and then stained using Annexin V/PI. […] The comprehensive outcomes are provided in Table 4 and graphically illustrated in Figure 10.
RFX 393 cells underwent treatment with the GI50 concentrations of compounds 6s and 6t for 48 h. Following the treatment, the cells were collected, dispersed in 0.5 mL of PBS, and subjected to centrifugation. They were then preserved in 70% (v/v) ethanol at 4 °C and subsequently rinsed with PBS. The fixed cells were then centrifuged again, resuspended in PBS, centrifuged once more, and stained with PE Annexin V and propidium iodide (PI) according to the manufacturer’s instructions. The samples were subsequently analyzed using flow cytometry with a FACScalibur instrument (Becton Dickinson, Franklin Lakes, NJ, USA). Data on cell cycle distributions were processed with the aid of Phoenix Flow Systems and Verity Software House.

[14] = system: SNB-75; assay: NCI 60 cell line single-dose growth inhibition (SRB); type: cell-based, human; conditions: 10 µM; central nervous system SNB-75 carcinoma cell line
Method: as §1, §2, §3, §4, §5, §6, §7

[15] = system: Trk; conditions: known inhibitor, in Figure 2; no reference given; cited from earlier work

## COc1ccc(-c2ccnc3c(C#N)c(Nc4ccccc4)nn23)cc1OC [6d, 7-(3,4-Dimethoxyphenyl)-2-(anilinyl)pyrazolo[1,5-a]pyrimidine-3-carbonitrile]
[1]
  IC50: 550 ± 40 nM
[2]
  IC50: 570 ± 20 nM
[3]
  GI %: 100.07%
[4]
  GI %: 84.17%

## N#Cc1c(Nc2ccccc2)nn2c(-c3ccco3)ccnc12 [6i, 7-(Furan-2-yl)-2-(anilinyl)pyrazolo[1,5-a]pyrimidine-3-carbonitrile]
[5]
  GI %: 68.96%

## CCOC(=O)c1c(Nc2ccccc2)nn2c(-c3ccccc3)ccnc12 [6k, Ethyl 7-Phenyl-2-(anilinyl)pyrazolo[1,5-a]pyrimidine-3-carboxylate]
[1]
  IC50: 1580 ± 130 nM
[2]
  IC50: 1170 ± 90 nM
[6]
  GI %: 90.41%
[7]
  GI %: 69.31%

## CCOC(=O)c1c(Nc2ccccc2)nn2c(-c3ccc(OC)cc3)ccnc12 [6m, Ethyl 7-(4-Methoxyphenyl)-2-(anilinyl)pyrazolo[1,5-a]pyrimidine-3-carboxylate]
[1]
  IC50: 1060 ± 90 nM
[2]
  IC50: 960 ± 40 nM
[4]
  GI %: 102.68%

## CCOC(=O)c1c(Nc2ccccc2)nn2c(-c3ccc(OC)c(OC)c3)ccnc12 [6n, Ethyl 7-(3,4-Dimethoxyphenyl)-2-(anilinyl)pyrazolo[1,5-a]pyrimidine-3-carboxylate]
[1]
  IC50: 780 ± 40 nM
[2]
  IC50: 980 ± 40 nM
[5]
  GI %: 94.73%
[8]
  GI %: 52.11%
[9]
  inhibition at 10 µM: 43.9%

## CCOC(=O)c1c(Nc2ccccc2)nn2c(-c3ccc(Cl)cc3)ccnc12 [6o, Ethyl 7-(4-Chlorophenyl)-2-(anilinyl)pyrazolo[1,5-a]pyrimidine-3-carboxylate]
[1]
  IC50: 760 ± 40 nM
[2]
  IC50: 1590 ± 110 nM
[6]
  GI %: 83.85%
[4]
  GI %: 110.55%

## CCOC(=O)c1c(Nc2ccccc2)nn2c(-c3ccc(Br)cc3)ccnc12 [6p, Ethyl 7-(4-Bromophenyl)-2-(anilinyl)pyrazolo[1,5-a]pyrimidine-3-carboxylate]
[1]
  IC50: 660 ± 40 nM
[2]
  IC50: 1340 ± 80 nM
[10]
  GI %: 66.02%
[5]
  GI %: 71.8%
[8]
  GI %: 66.12%
[4]
  GI %: 112.34%

## CCOC(=O)c1c(Nc2ccccc2)nn2c(-c3ccc([N+](=O)[O-])cc3)ccnc12 [6q, Ethyl 7-(4-Nitrophenyl)-2-(anilinyl)pyrazolo[1,5-a]pyrimidine-3-carboxylate]
[4]
  GI %: 52.08%

## CCOC(=O)c1c(Nc2ccccc2)nn2c(-c3ccc4ccccc4c3)ccnc12 [6r, Ethyl 7-(Naphthalen-2-yl)-2-(anilinyl)pyrazolo[1,5-a]pyrimidine-3-carboxylate]
[1]
  IC50: 200 ± 20 nM
[2]
  IC50: 970 ± 40 nM
[4]
  GI %: 81.71%

## CCOC(=O)c1c(Nc2ccccc2)nn2c(-c3ccco3)ccnc12 [6s, Ethyl 7-(Furan-2-yl)-2-(anilinyl)pyrazolo[1,5-a]pyrimidine-3-carboxylate]
[11]
  IC50: 11700 ± 400 nM
[12]
  %S: 11.49%
  %G0–G1: 84.36%
[13]
  Apoptosis Late: 7.74%
  Apoptosis Early: 20.29%
  Necrosis: 4.04%
  Apoptosis Total: 32.07%

## CCOC(=O)c1c(Nc2ccccc2)nn2c(-c3cccs3)ccnc12 [6t, Ethyl 2-(Anilinyl)-7-(thiophen-2-yl)pyrazolo[1,5-a]pyrimidine-3-carboxylate]
[1]
  IC50: 90 ± 10 nM
[4]
  GI %: 106.08%
[11]
  IC50: 19900 ± 670 nM
[12]
  %S: 15.26%
  %G0–G1: 78.01%
[13]
  Apoptosis Late: 9.49%
  Apoptosis Early: 11.15%
  Necrosis: 3.58%
  Apoptosis Total: 24.22%

## CCOC(=O)c1c(Nc2ccccc2)nn2c(-c3ccco3)c(C#N)cnc12 [11g, Ethyl 6-Cyano-7-(furan-2-yl)-2-(anilinyl)pyrazolo[1,5-a]pyrimidine-3-carboxylate]
[1]
  IC50: 220 ± 20 nM
[2]
  IC50: 890 ± 30 nM
[14]
  GI %: 69.53%

## O=C(Nc1cnn2ccc(N3CCC[C@@H]3c3cc(F)ccc3F)nc12)N1CC[C@H](O)C1 [Larotrectinib]
[15]
  IC50: 2 nM

## CN[C@@H]1C[C@H]2O[C@@](C)([C@@H]1OC)n1c3ccccc3c3c4c(c5c6ccccc6n2c5c31)C(=O)NC4 [Staurosporine, reference compound]
[11]
  IC50: 70 nM
